# According to patent US20260240878A1, “PTP1B/TC-PTP DUAL INHIBITORS AND PROTEIN DEGRADERS” (Purdue Research Foundation, priority 2023, published 2026):
# *1 amine or outer side, *2 acyl side, *3 side chain or, on linkers, in order; H or OH if unused. Where a SMILES comes first, the peptide text is derived from it. [ ]: non-standard residue; d: D form. The star is where a group is joined. NHCH2(1,3-C6H4)CH2CO = O=C(Cc1cccc(CN[*:1])c1)[*:2]; F2Pmp = N[C@@H](Cc1ccc(C(F)(F)P(=O)(O)O)cc1)C(=O)O; Phenylacetyl(4-OH,3-OMe) = COc1cc(CC(=O)*)ccc1O; Benzoyl(3-Br,4-Me) = Cc1ccc(C(=O)*)cc1Br; X1 = Cc1ncsc1-c1ccc([C@H](C)N*)cc1; Hyp = O=C(O)[C@@H]1C[C@@H](O)CN1; Tle = CC(C)(C)[C@H](N)C(=O)O
# Columns and labels:
# CD8+ naïve T-cells = assay: Degradation, STAT phosphorylation and activation in CD8+ naive T-cells (flow cytometry); assay type: cell-based, mouse
# Procedure: In (A) purified CD8^+ naïve T-cells from control (Ptpn2^fl/fl) and Lck-Cre; Ptpn2^fl/fl mice (n=3/genotype/condition) were incubated for 48 hours with IL-7 in the presence or absence of compound 47 as indicated, and TC-PTP and PTP1B protein levels were monitored by flow cytometry. (B) show vehicle-treated control, TCPTP-deficient Lck-Cre; Ptpn2^fl/fl and compound 47-treated control naïve CD8^+ T-cells were stimulated with plate-bound α-CD3/α-CD28 for 48 hours to promote T-cell activation. Basal STAT-1 (p(Y701) STAT-1) and STAT-5 (p(Y694) STAT-5) phosphorylation were assessed by flow cytometry. (C) cell size (FSC-A) and the T-cell activation markers CD25, CD69 and CD44 (MFI: mean fluorescence intensities) were measured by flow cytometry. (dot (●) represents Ptpn2^fl/fl+Vehicle, square (▪) represents Lck-Cre; Ptpn2^fl/fl+Vehicle, triangle (▴) represents Ptpn2^fl/fl+ compound 47).
# Beyond attenuating JAK/STAT signaling in tumor cells, PTP1B and TC-PTP also have fundamental roles in T-cells, and the deletion of either TC-PTP or PTP1B in T-cells can markedly enhance anti-tumor immunity. TC-PTP attenuates T-cell receptor (TCR) signaling by dephosphorylating and inactivating the Src family kinase LCK. TC-PTP attenuates JAK/STAT1/5 signaling in response to cytokines such as IFNs and IL-2, which are required for the activation, clonal expansion, and differentiation of T-cells. The deletion of TC-PTP in T-cells enhances immunosurveillance and inhibits the growth of syngeneic tumors in mice and the anti-tumor efficacy of adoptively transferred T-cells. PTP1B also negatively regulates IL-2-induced JAK/STAT5 signaling in T-cells, and its deletion or inhibition in vivo can enhance the anti-tumor activity of T-cells. Accordingly, the impact of targeting PTP1B and TC-PTP with compound 47 on JAK/STAT signaling and the activation of T-cells after crosslinking the TCR was assessed. The effects of compound 47 were compared with the genetic deletion of TC-PTP (encoded by Ptpn2) in T-cells (Lck-Cre; Ptpn2^fl/fl). First, the impact of compound 47 on TC-PTP and PTP1B protein levels was assessed by flow cytometry using validated antibodies. […] The degradation of TC-PTP and PTP1B was accompanied by a more than 3-fold increase in STAT1 Y701 phosphorylation and a 2-fold increase in STAT5 Y694 phosphorylation detected after crosslinking the TCR with α-CD3/α-CD28 to activate T-cells (FIG. 9B). Importantly, the promotion of pSTAT1/Y701 and pSTAT5/Y694 by compound 47 treatment exceeded that achieved by the genetic deletion of TC-PTP, consistent with compound 47 targeting both TC-PTP and PTP1B to enhance signaling. […] CD25 (IL-2 receptor a), and CD69 (FIG. 9C). […] This was not necessarily a surprise since TC-PTP, but not PTP1B, attenuates TCR signaling in naive CD8^+ T-cells.
# MC38 syngeneic tumor = MC38 syngeneic tumor study; assay type: in vivo, mouse
# Procedure: Quantification was performed based on six representative images from six sections.
# For MC38 syngeneic tumor study, 12 weeks C57BL6 female mice were injected subcutaneously with 10^6 MC38 cells for tumor growth. When tumors reached an average volume of 200 mm^3, mice were tumor size-matched and randomly assigned to different experimental groups for experiments. Mice were injected intraperitoneally with saline or 25 or 50 mg/kg compound 47 daily. Tumor sizes and animal weights were measured twice per week (FIGS. 5B-5C). Tumor volume (mm^3)=(length×width^2)/2. At the end of the experiments, mice were euthanized, and tumors were collected for analysis.
# PTP1B = molecular target: T1, PTP1B (Homo sapiens, UniProt P18031); assay: PTP activity assay with pNPP substrate (IC50, Ki, mode of inhibition); assay type: biochemical; settings: pNPP 2 mM, pH 7.0, 25° C.; read-out: IC50, nM PTP1B
# T1 sequence (P18031 1-435): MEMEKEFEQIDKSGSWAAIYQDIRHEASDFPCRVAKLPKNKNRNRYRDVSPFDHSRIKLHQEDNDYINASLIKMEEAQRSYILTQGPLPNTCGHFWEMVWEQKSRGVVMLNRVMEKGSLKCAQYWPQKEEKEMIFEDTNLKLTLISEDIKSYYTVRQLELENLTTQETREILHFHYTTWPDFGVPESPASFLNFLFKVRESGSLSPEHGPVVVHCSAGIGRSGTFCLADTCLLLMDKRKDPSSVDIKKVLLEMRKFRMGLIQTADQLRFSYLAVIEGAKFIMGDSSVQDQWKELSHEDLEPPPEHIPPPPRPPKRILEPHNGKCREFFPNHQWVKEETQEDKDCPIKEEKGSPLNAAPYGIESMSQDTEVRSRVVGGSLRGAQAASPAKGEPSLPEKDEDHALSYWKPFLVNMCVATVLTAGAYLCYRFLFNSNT
# Method in brief: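 Hydrolysis of pNPP measured spectrophotometrically in pH 7.0 DMG buffer (EDTA, NaCl, DTT, BSA) at 25 °C, 0.4 nM enzyme. IC50 at 2 mM pNPP (Km) over an inhibitor titration; mode of inhibition and Ki from rates across varied pNPP and inhibitor levels, fitted to enzyme kinetic models.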
# [1] = after crosslinking the TCR with α-CD3/α-CD28
structure (smiles),measurement,setting,value
"COc1cc(CC(=O)N[C@@H](Cc2ccccc2)C(=O)N[C@@H](Cc2ccc(C(F)(F)P(=O)(O)O)cc2)C(=O)N[C@@H](CCCCNC(=O)c2ccc(C)c(Br)c2)C(=O)NCc2cccc(CC(=O)N[C@H](C(=O)N3C[C@H](O)C[C@H]3C(=O)N[C@@H](C)c3ccc(-c4scnc4C)cc3)C(C)(C)C)c2)ccc1O [Compound 47, ((4-((S)-3-(((S)-6-(3-bromo-4-methylbenzamido)-1-((3-(2-(((S)-1-((2S,4R)-4-hydroxy-2-(((S)-1-(4-(4-methylthiazol-5-yl)phenyl)ethyl)carbamoyl)pyrrolidin-1-yl)-3,3-dimethyl-1-oxobutan-2-yl)amino)-2-oxoethyl)benzyl)amino)-1-oxohexan-2-yl)amino)-2-((S)-2-(2-(4-hydroxy-3-methoxyphenyl)acetamido)-3-phenylpropanamido)-3-oxopropyl)phenyl)difluoromethyl)phosphonic Acid] ({Phenylacetyl(4-OH,3-OMe)}-F[F2Pmp]K(Benzoyl(3-Br,4-Me))[NHCH2(1,3-C6H4)CH2CO][Tle][Hyp]-X1)","TCR-induced activation of T-cells (cell size, CD44, CD25, CD69)",CD8+ naïve T-cells,enhanced the TCR-induced activation of T-cells
same,TC-PTP and PTP1B protein levels in T-cells,CD8+ naïve T-cells; 48 hr treatment,effectively degraded
same,increase in STAT1 Y701 phosphorylation,CD8+ naïve T-cells; [1],more than 3 fold
same,increase in STAT5 Y694 phosphorylation,CD8+ naïve T-cells; [1],2 fold
same,CD8 T cell infiltration of tumor (CD8α IHC),MC38 syngeneic tumor; 25 mg/kg,high level of CD8-T cell infiltration
same,MC38 tumor growth,"MC38 syngeneic tumor; 25 and 50 mg/kg i.p. daily, ten days",significantly inhibits MC38 tumor growth
same,PTP1B and TC-PTP degradation in vivo (MC38 tumor),MC38 syngeneic tumor; 25 or 50 mg/kg,induces PTP1B and TC-PTP degradation in vivo
same,IC50,PTP1B,24.2 ± 1.7 nM
